Measurements reported in PMC5078090, “In vivo screening and discovery of novel candidate thalidomide analogs in the zebrafish embryo and chicken embryo model systems” (Oncotarget, 2016).
“Also recorded” adds a separate entry of the source.

Assays:
chicken embryos = assay: In ovo chicken embryo teratogenicity assay; format: in vivo, white leghorn chicken; settings: for Lowest effective concentration, Chicken assay: HH stage 17-18 embryos, where no activity was seen the concentration shown is the lowest screened; for Defects in chicken embryo development (text and figure legend): applied at HH stage 17-18, result in words; for Damage observed: HH stage 17-18 chicken embryos, 100 μg/mL
Procedure: Compounds of interest were screened in chicken and/or zebrafish embryos (Figure 4), to determine if these compounds are teratogenic. The chicken embryo is well established as a model to determine the action of compounds upon development.
Fertilized white leghorn chicken embryos were incubated at 38°C and staged according to the Hamburger and Hamilton (HH) stages of development. Embryos were tested at HH stage 17-18 (day 2.5). Following membrane removal test compounds or vehicle control solutions were applied over the embryo. The eggs were sealed and the development of the embryos was monitored up to HH stage 30 (E9). A minimum of 3 embryos were used per concentration, per drug.

[1] = system: fli1:EGFP zebrafish embryos; assay: fli1:EGFP zebrafish embryo angiogenesis assay (intersegmental vessel outgrowth and number); format: in vivo; settings: for Anti-angiogenic activity (loss of ISVs or inhibition of ISV outgrowth): fli1:EGFP embryos, 24 h incubation, result in words
Procedure: To determine if our novel thalidomide analogs (Figure 1) had any effect on in vivo angiogenesis, we used fli1:EGFP embryos which express green fluorescent protein (GFP) on endothelial cells throughout development. Embryos were allowed to develop for 24 hours, then exposed to either vehicle or a compound of interest at the concentration range of 1 to 200 μg/mL. During this time the vasculature is rapidly expanding and developing new, naive intersegmental vessels (ISVs). The embryos were imaged after 24 hours of incubation with the drug (Figure 2A). […] We also observed that the potency of each compound varied.
Figure 2 The effect of novel thalidomide analogs on vessel length fli1:EGFP zebrafish were incubated with vehicle or compounds for 24 hours, at which point vessel outgrowth and number were measured. A. Images of zebrafish exposed to the vehicle or test compounds. […] Treatment with C4 (1.5 μg/mL), C18 (50 μg/mL), C81 (50 μg/mL), C82 (5 μg/mL), C83 (20 μg/mL) and C84 (50 μg/mL) show reduction in vessel out growth (white arrow) and in some cases loss of vessel (white asterisks). B. Stalk length & C. stalk number are reduced. Compounds are shown at the lowest concentration producing an effect. The data represent the mean + the standard error of the mean.
Zebrafish embryos were treated with analogs as previously described. Briefly, fli1:EGFP embryos were collected and embryos were allowed to develop for 24 hours. Embryos were dechorionated manually and exposed to test compounds or vehicle control (0.1% DMSO) for a further 24 hours. Embryos were anesthetized with 0.05% MS222 (Tricaine) (Sigma Aldrich) and live visualization of blood vessels was carried out.
(§1) A broad series of novel thalidomide-based compounds were chemically synthesized (WL, NHG and WDF, NIH), dissolved in DMSO, stored in stock concentrations between 10-100 mg/mL, and used at a final working DMSO concentration of 0.1%. The chemical structures of lead compounds of interest were confirmed by chemical characterization (purity >99.5%). Compounds were screened across a range of concentrations from 1-200 μg/mL to determine the lowest effective concentration.

[2] = system: Tg(MPO::EGFP)^114 zebrafish; assay: Tg(MPO::EGFP)^114 zebrafish tail fin clip assay of neutrophil migration to the wound site; format: in vivo; settings: for minimal effective concentration: Danio rerio, Neutrophil, fin clipped at 72 hpf, imaged at 24 h, screened 1-200 μg/mL, where no activity was seen the concentration shown is the lowest screened; for Effect on neutrophil migration to the wound site (anti-inflammatory activity): fin clipped 72 hpf embryos, result in words
Source text: To assess the immunomodulatory effects of the thalidomide analogs across the concentration range used in the previous assay, the transgenic zebrafish line Tg(MPO::EGFP)^114 was used. These embryos express GFP tagged myeloperoxidase, marking neutrophils during the inflammatory response, for example following injury. […] This allowed us to subsequently assess the anti-inflammatory activity of each compound by immersing embryos in the test drug or vehicle. The embryos were examined for migration of neutrophils to the wound site. In comparison to control embryos (Figure 3A) compounds with anti-inflammatory properties had reduction of at least 50% of neutrophils recruited to the wound site (Figure 3). […] We also screened the previously identified six anti-angiogenic compounds of interest in the Tg(MPO::EGFP)^114 line.
Figure 3 The effect of thalidomide analogs on the inflammatory response to wound healing A. Zebrafish (72 hpf) embryos transgenic for a fluorescently tagged neutrophil marker Tg(MPO::EGFP)^114 were fin clipped to induce an inflammatory response and exposed to vehicle or a test compound. Broken line indicates the tail fin with cut and area of the wound site. […] The data represent the mean + the standard error of the mean.
Tg(MPO::EGFP)^114 embryos were tail fin clipped as previously detailed and incubated with test compounds or vehicle control at 72 hpf. Fish were imaged at 24 hours and the number of migratory neutrophils present at the wound site were counted. Compounds inducing an at least 50% reduction of neutrophils to the wound site were considered to have anti-inflammatory properties in this system. All larvae were assessed for viability and morphological integrity. A minimum of 10 embryos were used per concentration per drug. Error bars represent standard error of the mean.
as §1

TNF-α [3] = system: TNF-α; parameters: method as in PMID 22642825, PMID 22277195; settings: rats challenged with systemic LPS; cited from earlier work
WT Zebrafish = assay: WT zebrafish embryo developmental defect (teratogenicity) screen; format: in vivo; settings: for Eye development / eye diameter in zebrafish embryos / Pectoral fin development / fin length in zebrafish embryos: Figure 4, result in words; for Lowest effective concentration, WT Zebrafish assay: screened 1-200 μg/mL, where no activity was seen the concentration shown is the lowest screened
TNF-α [4] = system: TNF-α; parameters: method as in PMID 22642825, PMID 22277195; settings: cited from earlier work

| Compound | Lowest effective concentration, Chicken assay (chicken embryos) [µg/mL] | Defects in chicken embryo development (text and figure legend) (chicken embryos) | Teratogenicity in these assays (chicken embryos; chicken and zebrafish embryo assays together, result in words) | minimal effective concentration ([1]; Danio rerio, 24 h, 24 hpf embryos exposed 24 h, screened 1-200 μg/mL, where no activity was seen the concentration shown is the lowest screened) [µg/mL] | Anti-angiogenic activity (loss of ISVs or inhibition of ISV outgrowth) [1] | minimal effective concentration [2] [µg/mL] | Effect on neutrophil migration to the wound site (anti-inflammatory activity) [2] | Effect on LPS-induced elevations in TNF-α, plasma and brain of rats (TNF-α [3]) | Eye development / eye diameter in zebrafish embryos (WT Zebrafish) | Pectoral fin development / fin length in zebrafish embryos (WT Zebrafish) | Lowest effective concentration, WT Zebrafish assay (WT Zebrafish) [µg/mL] | Effect on LPS-induced elevations in TNF-α, cultured RAW 264.7 cells (TNF-α [4]) | Damage observed (chicken embryos) |
| --- | --- | --- | --- | --- | --- | --- | --- | --- | --- | --- | --- | --- | --- |
| O=C1NC(=S)CCC1N1C(=O)c2ccccc2C1=S (centres unmarked) [Compound C2, 2,3-dihydro-2-(2-oxo-6-thioxo-3-piperidinyl)-3-thioxo-1H-isoindol-1-one] | 100 | no effect | non-teratogenic | 10 | without anti-angiogenic activities | 10 | reduced neutrophil migration; also recorded: significant anti-inflammatory action | potently lower lipopolysaccharide (LPS)-induced elevations in TNF-α | normal eye development | normal | 10 | potently lower lipopolysaccharide (LPS)-induced elevations in TNF-α |  |
| O=C1c2cccc([N+](=O)[O-])c2CN1C1C2CC3CC(C2)CC1C3 (centres unmarked) [Compound C82] | 100 | limb and digit defects |  |  | anti-angiogenic activity | 5 | significantly reduce neutrophil migration |  | reductions in eye diameter | reductions | 5 |  | Limb reduction defect |
| Nc1cccc2c1CN(C1C3CC4CC(C3)CC1C4)C2=O (centres unmarked) [Compound C83] | 100 | hemorrhaging; also recorded: abnormal blood vessels and necrotic-like regions in the surrounding yolk sac membrane |  |  | anti-angiogenic activity | 20 |  |  | reductions in eye diameter |  | 10 |  | Necrotic YSM, hemorrhaging |
| O=C1c2cccc([N+](=O)[O-])c2CN1C12CC3CC(CC(C3)C1)C2 [Compound C84] | 100 | hemorrhaging |  |  | anti-angiogenic activity | 10 |  |  | reductions in eye diameter |  | 10 |  | Hemorrhaging |
